Patent US10286022B2, “Medicinal composition of extract of seed of emblica officinalis and method of preparing the same” (priority 2013, dated 2019)

Key:
[1] = system: streptozotocin induced diabetic rats; experiment: Antidiabetic activity in streptozotocin induced diabetic rats (Example 22); assay type: in vivo, rat
Procedure: The amla seed extract as prepared in example 1 was evaluated for antidiabetic activity in experimental rats. Male/Female albino wistar rats were maintained as per standard guidelines: housed in polypropylene cages, under 12 hour artificial light and dark cycles at a temperature of 24±2° C., given a standard pellet diet and water ad libitum. The animals were acclimatized to the animal house conditions for a week before beginning the experiment. Diabetes was induced by injecting streptozotocin 35 mg/kg dissolved in 0.1M citrate buffer of pH 4.5, intra-peritoneally. […] Animals with FBG above 200 mg/dl were considered diabetic. The diabetic animals were randomly divided into three groups of six animals each. […] The plasma CRP level was measured initially and then at Day 28 of the study.

HMG-CoA Reductase (HMGR) = target: T1, HMG-CoA Reductase (HMGR) (Homo sapiens, UniProt P04035); experiment: HMG-CoA reductase inhibition assay (Example 30); assay type: biochemical; conditions: read-out: % Inhibition over control
T1 sequence (P04035 426-888 limits assumed): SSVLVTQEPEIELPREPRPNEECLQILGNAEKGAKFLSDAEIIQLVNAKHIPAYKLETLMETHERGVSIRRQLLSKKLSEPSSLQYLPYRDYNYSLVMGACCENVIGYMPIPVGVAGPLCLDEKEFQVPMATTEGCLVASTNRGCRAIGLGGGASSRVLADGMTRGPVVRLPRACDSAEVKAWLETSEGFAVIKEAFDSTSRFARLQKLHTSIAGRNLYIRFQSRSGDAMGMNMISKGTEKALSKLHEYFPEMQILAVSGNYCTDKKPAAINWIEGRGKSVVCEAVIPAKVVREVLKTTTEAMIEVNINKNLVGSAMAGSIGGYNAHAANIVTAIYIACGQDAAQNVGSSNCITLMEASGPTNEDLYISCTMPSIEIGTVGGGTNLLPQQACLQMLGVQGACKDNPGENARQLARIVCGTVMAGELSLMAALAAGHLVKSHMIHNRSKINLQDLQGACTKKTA
Procedure: Amla seed extract prepared as per example 1 and water extract of dried Amla seed prepared as per example 8 was weighed separately and each extract was dissolved in dimethyl sulfoxide (DMSO) to prepare a stock of 400 mg/ml stock solution of each. From this stock, different dose levels were prepared in DMSO for further experimental use. […] The optical density (OD) values were recorded using spectrophotometer at regular time intervals. […] Based on the specific activity values from all the test doses, EC50 (Effective Concentration 50) were determined by plotting a curve between Specific activity Vs. Test concentration. EC50 values (μg/ml) and IC50 (μM) were determined by interpolation method by using Graph pad prism, version 5.01.

Row | Compound | Fasting Blood Glucose level Day 7 ([1]; 0.5 mg/kg for 28 days) | Fasting Blood Glucose level Day 14 ([1]; 0.5 mg/kg for 28 days) | Fasting Blood Glucose level Day 21 ([1]; 0.5 mg/kg for 28 days) | Fasting Blood Glucose level Day 28 ([1]; 0.5 mg/kg for 28 days) | effect on blood glucose level ([1]; 0.5 mg/kg for 28 days) | Fasting Blood Glucose level Day 1 (Initial) ([1]; 0.5 mg/kg for 28 days group) | effect on CRP level ([1]; 0.5 mg/kg for 28 days, compared to initial CRP value) | CRP level Day 28 (Final) ([1]; plasma, 0.5 mg/kg for 28 days) | CRP level Day 1 (Initial) ([1]; plasma, 0.5 mg/kg for 28 days group) | inhibition at 2.5 µM (HMG-CoA Reductase (HMGR); test concentration 2.5 μM) | inhibition at 5 µM (HMG-CoA Reductase (HMGR); test concentration 5 μM) | inhibition at 10 µM (HMG-CoA Reductase (HMGR); test concentration 10 μM) | inhibition at 20 µM (HMG-CoA Reductase (HMGR); test concentration 20 μM) | inhibition at 40 µM (HMG-CoA Reductase (HMGR); test concentration 40 μM) | inhibition at 60 µM (HMG-CoA Reductase (HMGR); test concentration 60 μM) | inhibition at 80 µM (HMG-CoA Reductase (HMGR); test concentration 80 μM) | inhibition at 100 µM (HMG-CoA Reductase (HMGR); test concentration 100 μM)
1 | COc1ccc(Cl)cc1C(=O)NCCc1ccc(S(=O)(=O)NC(=O)NC2CCCCC2)cc1 [Glibenclamide] | 211 mg/dL | 179 mg/dL | 136 mg/dL | 109 mg/dL | decreased the blood glucose level to nearly normal | 406 mg/dL | failed to decrease the CRP level significantly | 9.6 mg/L | 10.8 mg/L | – | – | – | – | – | – | – | –
2 | CC[C@H](C)C(=O)O[C@H]1C[C@@H](C)C=C2C=C[C@H](C)[C@H](CC[C@@H]3C[C@@H](O)CC(=O)O3)[C@H]21 [LOVASTATIN, lovastatin] | – | – | – | – | – | – | – | – | – | 37% | 37.6% | 37.7% | 41.5% | 55.6% | 76.5% | 86.6% | 98.5%
